Measurements as given in the supplement of paper PMC10307832.

How the values were obtained:
Assay in all cases: relative viability (nuclei count vs DMSO), 5 days (fraction); higher = more cells survive
AZD8055 + Navitoclax = compound: COc1ccc(-c2ccc3c(N4CCOC[C@@H]4C)nc(N4CCOC[C@@H]4C)nc3n2)cc1CO [AZD8055] + CC1(C)CCC(c2ccc(Cl)cc2)=C(CN2CCN(c3ccc(C(=O)NS(=O)(=O)c4ccc(N[C@H](CCN5CCOCC5)CSc5ccccc5)c(S(=O)(=O)C(F)(F)F)c4)cc3)CC2)C1 [Navitoclax] (partner 0.5 µM)
How it was run: (§1)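 Lung cancer cell lines were pin-tool dosed in 1536-well plates on the day after seeding, with either a lone drug or a fixed anchor-drug dose plus five library-drug doses (not always all listed) in √10 steps. Nuclei were counted on 4× images after 5 days. Relative viability is the ratio of treated-well to vehicle-well nuclei counts, with each value a median of duplicate plates.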

AZD8055 + Luminespib = compound: COc1ccc(-c2ccc3c(N4CCOC[C@@H]4C)nc(N4CCOC[C@@H]4C)nc3n2)cc1CO [AZD8055] + CCNC(=O)c1noc(-c2cc(C(C)C)c(O)cc2O)c1-c1ccc(CN2CCOCC2)cc1 [Luminespib] (partner 0.01 µM)
How it was run: as §1

AZD8055 + Foretinib = compound: COc1ccc(-c2ccc3c(N4CCOC[C@@H]4C)nc(N4CCOC[C@@H]4C)nc3n2)cc1CO [AZD8055] + COc1cc2c(Oc3ccc(NC(=O)C4(C(=O)Nc5ccc(F)cc5)CC4)cc3F)ccnc2cc1OCCCN1CCOCC1 [Foretinib] (partner 0.25 µM)
How it was run: as §1

AZD8055 + Linsitinib = compound: COc1ccc(-c2ccc3c(N4CCOC[C@@H]4C)nc(N4CCOC[C@@H]4C)nc3n2)cc1CO [AZD8055] + C[C@]1(O)C[C@@H](c2nc(-c3ccc4ccc(-c5ccccc5)nc4c3)c3c(N)nccn32)C1 [Linsitinib] (partner 1 µM)
How it was run: as §1

| Cell Line | relative viability (AZD8055 + Navitoclax; first compound 0.01 µM) | relative viability (AZD8055 + Navitoclax; first compound 0.03162 µM) | relative viability (AZD8055 + Navitoclax; first compound 0.1 µM) | relative viability (AZD8055 + Navitoclax; first compound 0.3162 µM) | relative viability (AZD8055 + Navitoclax; first compound 1 µM) | relative viability (AZD8055 + Luminespib; first compound 0.01 µM) | relative viability (AZD8055 + Luminespib; first compound 0.03162 µM) | relative viability (AZD8055 + Luminespib; first compound 0.1 µM) | relative viability (AZD8055 + Luminespib; first compound 0.3162 µM) | relative viability (AZD8055 + Luminespib; first compound 1 µM) | relative viability (AZD8055 + Foretinib; first compound 0.01 µM) | relative viability (AZD8055 + Foretinib; first compound 0.03162 µM) | relative viability (AZD8055 + Foretinib; first compound 0.1 µM) | relative viability (AZD8055 + Foretinib; first compound 0.3162 µM) | relative viability (AZD8055 + Foretinib; first compound 1 µM) | relative viability (AZD8055 + Linsitinib; first compound 0.01 µM) | relative viability (AZD8055 + Linsitinib; first compound 0.03162 µM) | relative viability (AZD8055 + Linsitinib; first compound 0.1 µM) | relative viability (AZD8055 + Linsitinib; first compound 0.3162 µM) | relative viability (AZD8055 + Linsitinib; first compound 1 µM) |
| --- | --- | --- | --- | --- | --- | --- | --- | --- | --- | --- | --- | --- | --- | --- | --- | --- | --- | --- | --- | --- |
| NCI-H1651 | 1.08 | 0.879 | 0.622 | 0.52 | 0.282 | 0.925 | 0.798 | 0.779 | 0.412 | 0.313 | 0.702 | 0.774 | 0.575 | 0.363 | 0.263 | 0.845 | 0.796 | 0.689 | 0.305 | 0.282 |
| NCI-H1666 | 0.878 | 0.819 | 0.731 | 0.561 | 0.417 | 1.06 | 1.03 | 0.977 | 0.772 | 0.693 | 0.981 | 1 | 0.969 | 0.694 | 0.615 | 0.802 | 0.666 | 0.417 | 0.552 | 0.375 |
| NCI-H1734 | 1.04 | 0.742 | 0.472 | 0.316 | 0.173 | 0.199 | 0.167 | 0.194 | 0.151 | 0.183 | 0.893 | 0.748 | 0.565 | 0.312 | 0.221 | 0.857 | 0.638 | 0.457 | 0.289 | 0.262 |
| NCI-H1755 | 0.953 | 0.71 | 0.687 | 0.296 | 0.307 | 0.43 | 0.417 | 0.361 | 0.263 | 0.251 | 0.885 | 0.788 | 0.698 | 0.485 | 0.373 | 0.95 | 0.867 | 0.764 | 0.474 | 0.403 |
| NCI-H1793 | 0.363 | 0.288 | 0.205 | 0.229 | 0.163 | 0.151 | 0.156 | 0.146 | 0.132 | 0.149 | 0.457 | 0.35 | 0.222 | 0.189 | 0.183 | 0.539 | 0.315 | 0.224 | 0.197 | 0.18 |
| NCI-H1915 | 0.853 | 0.769 | 0.81 | 0.757 | 0.509 | 0.777 | 0.727 | 0.598 | 0.5 | 0.322 | 1.12 | 1.04 | 1.01 | 0.574 | 0.527 | 1.19 | 0.977 | 1.08 | 0.837 | 0.558 |
| NCI-H1944 | 1.05 | 0.929 | 0.851 | 0.457 | 0.316 | 0.866 | 0.573 | 0.483 | 0.277 | 0.222 | 1.04 | 0.793 | 0.648 | 0.409 | 0.321 | 1.13 | 0.843 | 0.693 | 0.477 | 0.335 |
| NCI-H1975 | 0.967 | 0.91 | 0.802 | 0.279 | 0.247 | 0.2 | 0.155 | 0.186 | 0.149 | 0.147 | 0.86 | 0.73 | 0.459 | 0.284 | 0.24 | 0.897 | 0.581 | 0.469 | 0.265 | 0.219 |
| NCI-H1993 | 0.785 | 0.681 | 0.649 | 0.665 | 0.56 | 0.74 | 0.593 | 0.497 | 0.402 | 0.471 | 0.696 | 0.584 | 0.51 | 0.503 | 0.577 | 0.721 | 0.593 | 0.688 | 0.702 | 0.695 |
| NCI-H2009 | 1.11 | 1.14 | 1.04 | 0.553 | 0.323 | 1.07 | 1.07 | 1.16 | 0.887 | 0.378 | 1.27 | 1.24 | 1.13 | 0.912 | 0.367 | 1.17 | 1.1 | 0.891 | 0.692 | 0.374 |
| NCI-H2023 | 0.951 | 0.871 | 0.598 | 0.249 | 0.181 | 0.591 | 0.411 | 0.138 | 0.1 | 0.128 | 0.787 | 0.817 | 0.654 | 0.26 | 0.126 | 0.45 | 0.343 | 0.28 | 0.17 | 0.12 |
| NCI-H2085 | 1.11 | 0.945 | 0.672 | 0.417 | 0.33 | 0.447 | 0.387 | 0.294 | 0.21 | 0.281 | 0.945 | 0.919 | 0.602 | 0.278 | 0.329 | 0.956 | 0.744 | 0.566 | 0.289 | 0.274 |
| NCI-H2087 | 0.911 | 0.951 | 0.703 | 0.421 | 0.309 | 0.171 | 0.163 | 0.138 | 0.124 | 0.141 | 1.04 | 0.857 | 0.676 | 0.461 | 0.315 | 0.907 | 0.905 | 0.679 | 0.411 | 0.367 |
| NCI-H2126 | 0.801 | 0.763 | 0.641 | 0.487 | 0.345 | 0.921 | 0.884 | 0.484 | 0.308 | 0.312 | 1.32 | 1.05 | 0.91 | 0.575 | 0.593 | 0.655 | 0.572 | 0.504 | 0.375 | 0.385 |
| NCI-H2228 | 0.804 | 0.86 | 0.24 | 0.18 | 0.244 | 0.137 | 0.11 | 0.104 | 0.15 | 0.144 | 0.739 | 0.54 | 0.385 | 0.166 | 0.241 | 0.528 | 0.284 | 0.304 | 0.175 | 0.257 |
| NCI-H2347 | 0.859 | 0.595 | 0.453 | 0.339 | 0.24 | 0.295 | 0.251 | 0.367 | 0.282 | 0.222 | 0.804 | 0.949 | 0.454 | 0.403 | 0.386 | 0.875 | 0.805 | 0.746 | 0.51 | 0.436 |
